Experimental data from patent US20080058339A1, “New compounds” (Biovitrum, priority 2006, published 2008).

Target: T1, human GPR119 receptor (Homo sapiens, UniProt Q8TDV5)
T1 construct: expressed in transfected cells
T1 sequence (Q8TDV5 1-335): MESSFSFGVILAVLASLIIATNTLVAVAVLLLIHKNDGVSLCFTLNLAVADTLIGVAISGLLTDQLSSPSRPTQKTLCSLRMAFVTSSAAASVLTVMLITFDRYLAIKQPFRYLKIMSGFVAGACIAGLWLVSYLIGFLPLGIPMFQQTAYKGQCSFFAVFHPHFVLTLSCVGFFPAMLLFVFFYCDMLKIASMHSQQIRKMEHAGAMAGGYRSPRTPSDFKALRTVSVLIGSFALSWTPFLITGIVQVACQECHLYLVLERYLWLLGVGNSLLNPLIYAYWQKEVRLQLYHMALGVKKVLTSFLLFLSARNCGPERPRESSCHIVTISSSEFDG
Experiment: Human GPR119 activity assay (cAMP HTRF in HEK293-hGPR119 cells)
Assay type: cell-based
Settings: cAMP stimulation in HEK293 cells stably expressing human GPR119, 20 min incubation, read-out: Agonist potency at the human GPR119, EC50
Experimental: Human GPR119 Activity Assay
Agonists to the human GPR119 receptor were characterized by measuring human GPR119 receptor-mediated stimulation of cyclic AMP (cAMP) in HEK 293 cells expressing the human GPR119 receptor.
Briefly, cAMP content was determined using a cAMP kit based on HTRF technology (Homogeneous Time-Resolved Fluorescence, Cisbio Cat. no. 62AM2PEC). HEK293 cells stably expressing the human GPR119 receptor (HEK293-hGPR119 cells) were cultured in DMEM (Gibco #31966-021) supplemented with 10% Bovine Calf Serum (Hyclone #SH30072.03), and, 500 μg/mL Hygromycin B (Roche Diagnostics 843555). At 80% confluency, cells were detached using Trypsine and aliquoted at a density of 5×10^6 cells/mL in freezing medium (DMEM (Gibco # 31966-021), 20% BCS (Hyclone #SH30072.03), 10% DMSO (Sigma #D2650) and stored at −135° C. On the experimental day, HEK293-hGPR119 cells were thawn and diluted to 0.4×10^6 cells/mL in assay buffer (1×HBSS (Gibco Cat. no. 14025-049), 20 mM Hepes (Gibco Cat. no. 15630-056), 0.1% BSA, pH 7.4) and incubated with test substances for 20 min at room temperature. After addition of HTRF reagents diluted in lysis buffer, the 96- or 384-well plates were incubated 1 hour, followed by measuring the fluorescence ratio at 665 nm/620 nm. […]

CC(C)(C)OC(=O)N1CCC(COc2ccc(-c3ccc(S(C)(=O)=O)cc3)nn2)CC1 [Example A1, tert-Butyl 4-[({6-[4-(methylsulfonyl)phenyl]pyridazin-3-yl}oxy)methyl]piperidine-1-carboxylate]
EC50: 46 nM

CCN(Cc1ccc(-c2ccc(S(C)(=O)=O)cc2)nn1)C1CCN(C(=O)OC(C)(C)C)CC1 [Example A4, tert-Butyl 4-[ethyl({6-[4-(methylsulfonyl)phenyl]pyridazin-3-yl}methyl)amino]-piperidine-1-carboxylate]
EC50: 83 nM
